One series deals with OCI-AML3 cells. The series can be described thus: Proliferation assay, OCI-AML3 (CellTiter-Glo, 7 days). It counts as cell-based, human. An outline of the steps:
(§1)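 Cells seeded at 125 (MOLM-13), 300 (MV4;11), 75 (OCI-AML3) or 200 (HEL) per well were exposed to 3.16-fold compound dilutions (0.1% DMSO) for 7 days at 37° C. Viability by CellTiter-Glo luminescence, normalized to DMSO (100%) and day-0 plate (0%); IC50 from one-site dose-response fit.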
In general terms: ATP-based viability assays read luminescence as a measure of living cells.

For another series, the target named is muscarinic M2 receptor (Homo sapiens (Human), UniProt P08172). The series can be described thus: Muscarinic M2 receptor binding assay (assay 1). To be noted: [3H]AF-DX 384 2 nM, Cheng Prusoff. An outline of the steps:
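Membrane homogenates (60 μg protein) were incubated with 2 nM [3H]AF-DX 384 for 60 min at 22° C in Tris-HCl pH 7.4 with NaCl, KCl, MgCl2 and EDTA; 1 μM atropine defined nonspecific binding. Filtration and scintillation counting gave percent inhibition of specific binding, with Ki by Cheng-Prusoff.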

A further series concerns HEL cells. As to the kind of experiment: Proliferation assay, HEL control cell line (CellTiter-Glo, 7 days). It is filed as cell-based, human. In outline: as §1
Series [1] in a line: Human hepatocyte intrinsic clearance assay. As to conditions: human hepatocytes. It is filed as in vitro ADME. In outline:
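Pooled 10-donor cryopreserved human hepatocytes in suspension (0.25×10^6 cells in 0.25 mL) incubated with test compound at […], 37° C. Samples taken 0.5–120 min and quenched in acetonitrile, parent remaining measured by LC-MS/MS. CLint ([…]) derived from slope of ln % remaining vs time.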

Where two headings read alike, the source gives them in different places.

Chain of muscarinic M2 receptor (P08172 whole entry): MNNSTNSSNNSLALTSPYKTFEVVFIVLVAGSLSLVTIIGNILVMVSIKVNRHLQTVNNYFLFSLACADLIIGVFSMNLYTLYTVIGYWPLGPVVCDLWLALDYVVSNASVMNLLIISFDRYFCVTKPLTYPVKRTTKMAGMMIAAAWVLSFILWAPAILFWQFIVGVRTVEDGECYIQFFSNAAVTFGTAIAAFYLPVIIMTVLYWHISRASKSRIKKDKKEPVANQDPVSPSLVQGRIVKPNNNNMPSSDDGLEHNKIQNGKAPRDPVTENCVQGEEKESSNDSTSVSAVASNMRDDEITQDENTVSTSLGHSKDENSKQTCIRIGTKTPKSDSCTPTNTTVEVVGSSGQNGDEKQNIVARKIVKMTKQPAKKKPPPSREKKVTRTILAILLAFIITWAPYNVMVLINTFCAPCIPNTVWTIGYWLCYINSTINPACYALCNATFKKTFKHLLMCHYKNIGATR

Take `CC(C)N(C(=O)c1cc(F)ccc1-n1cc(C(=O)C2CN(C(=O)[C@H]3N[C@@H]4CC[C@H]3C4)C2)c2ccnc(F)c21)C(C)C` [Example 15, 2-(3-(1-((1R,3S,4S)-2-Azabicyclo[2.2.1]heptane-3-carbonyl)azetidine-3-carbonyl)-7-fluoro-1H-pyrrolo[2,3-c]pyridin-1-yl)-5-fluoro-N,N-diisopropylbenzamide]: the 50% inhibitory concentration (IC50) (usually the concentration needed to halve the response being measured) with OCI-AML3 cells (Homo sapiens, OCI-AML-3, 168 h) is 103 nM; with HEL cells (Homo sapiens, HEL, 168 h) it was above 10 µM. For the same compound, the Ki (as a rule, a measure of affinity in units of concentration, obtained from inhibition or displacement) at muscarinic M2 receptor was determined as 13.6 µM. Further, the “HH CLint” value in series [1] worked out at 2.9 μl/min/1E6.
`Cc1c(C(=O)C2CCN(C(=O)[C@@H]3CCC4(CC4)N3)CC2)c2ccncc2n1-c1ccc(F)cc1C(=O)N1[C@H](C)COC[C@H]1C` (single isomer, unassigned) [Example 58-2]: the IC50 in the series on OCI-AML3 cells (Homo sapiens, OCI-AML-3, 168 h) is 35 nM; in the series with HEL cells it was above 10 µM. Also, the Ki on muscarinic M2 receptor amounted to 4.2 µM. Also, the “HH CLint” value in series [1] is 1.9 μl/min/1E6.
Take `CC(C)N(C(=O)c1cc(F)ccc1-n1cc(C(=O)C2CCN(C(=O)[C@@H]3CC4(CC4)CN3)CC2)c2ccncc21)C(C)C` [Example 26, (S)-2-(3-(1-(5-Azaspiro[2.4]heptane-6-carbonyl)piperidine-4-carbonyl)-1H-pyrrolo[2,3-c]pyridin-1-yl)-5-fluoro-N,N-diisopropylbenzamide]: the concentration for half-maximal inhibition (IC50) in the series on OCI-AML3 cells (Homo sapiens, OCI-AML-3, 168 h) was 140 nM; in the series with HEL cells (Homo sapiens, HEL, 168 h), above 10 µM. The compound also gave a Ki on muscarinic M2 receptor of 2.6 µM. For the same compound, the “HH CLint” value in series [1] was below 1.0 μl/min/1E6.
As to `Cc1c(C(=O)C2CCN(C(=O)[C@@H]3CCC(C)(C)N3)CC2)c2ccncc2n1-c1ccc(F)cc1C(=O)N(C(C)C)C(C)C` (single isomer, unassigned) [Compound 56-2], the IC50 with OCI-AML3 cells (Homo sapiens, OCI-AML-3, 168 h) was 47 nM; in the series with HEL cells, above 10 µM. Moreover, the Ki on muscarinic M2 receptor is above 100 µM. Further, the “HH CLint” value in series [1] worked out at 3.4 μl/min/1E6.
In the case of `Cc1c(C(=O)C2CCN(C(=O)[C@H]3NC[C@@H]4C[C@@H]43)CC2)c2ccncc2n1-c1ccc(F)cc1C(=O)N(C(C)C)C(C)C` (single isomer, unassigned) [Example 55-2], the IC50 is 29 nM in the series on OCI-AML3 cells (Homo sapiens, OCI-AML-3, 168 h) and above 10 µM in the series with HEL cells. In addition, the Ki at muscarinic M2 receptor worked out at 51.9 µM. Besides, the “HH CLint” value in series [1] is 4.2 μl/min/1E6.
Turning to `CC(C)N(C(=O)c1cc(F)ccc1-n1cc(C(=O)C2CN(C(=O)[C@H]3N[C@H]4C[C@@H]3[C@@H](F)C4)C2)c2ccncc21)C(C)C` [Example 7, 5-Fluoro-2-(3-(1-((1S,3S,4S,5S)-5-fluoro-2-azabicyclo[2.2.1]heptane-3-carbonyl)azetidine-3-carbonyl)-1H-pyrrolo[2,3-c]pyridin-1-yl)-N,N-diisopropylbenzamide], the IC50 was 115 nM in the series with OCI-AML3 cells (Homo sapiens, OCI-AML-3, 168 h) and above 10 µM in the series on HEL cells (Homo sapiens, HEL, 168 h). The Ki on muscarinic M2 receptor was determined as 14.4 µM. Also, the “HH CLint” value in series [1] amounted to 3.2 μl/min/1E6.
With `Cc1c(C(=O)C2CCN(C(=O)[C@H]3NC[C@@H]4C[C@@H]43)CC2)c2ccncc2n1-c1ccc(F)cc1-c1cnccc1C(C)C` [Example 54, (1-((1S,2S,5R)-3-Azabicyclo[3.1.0]hexane-2-carbonyl)piperidin-4-yl)(1-(4-fluoro-2-(4-isopropylpyridin-3-yl)phenyl)-2-methyl-1H-pyrrolo[2,3-c]pyridin-3-yl)methanone], the IC50 in the series with OCI-AML3 cells (Homo sapiens, OCI-AML-3, 168 h) was 43 nM; in the series on HEL cells (Homo sapiens, HEL, 168 h), above 10 µM. At muscarinic M2 receptor, this compound registered a Ki of 3.5 µM. For the same compound, the “HH CLint” value in series [1] worked out at 6.4 μl/min/1E6.
The corresponding values for `CC(C)N(C(=O)c1cc(F)ccc1-n1cc(C(=O)[C@H]2CCN(C(=O)[C@H]3N[C@@H]4CC[C@H]3C4)C2)c2ccncc21)C(C)C` [Example 2, 2-(3-((S)-1-((1R,3S,4S)-2-Azabicyclo[2.2.1]heptane-3-carbonyl)pyrrolidine-3-carbonyl)-1H-pyrrolo[2,3-c]pyridin-1-yl)-5-fluoro-N,N-diisopropylbenzamide] are 126 nM, above 10 µM, 0.8 µM and below 1.0 μl/min/1E6.
The corresponding values for `CC(C)N(C(=O)c1cc(F)ccc1-n1cc(C(=O)C2CCN(C(=O)[C@H]3NC[C@@H]4CC[C@@H]43)CC2)c2ccncc21)C(C)C` (relative stereo) [Example 25, rel-2-(3-(1-((1R,2R,5S)-3-Azabicyclo[3.2.0]heptane-2-carbonyl)piperidine-4-carbonyl)-1H-pyrrolo[2,3-c]pyridin-1-yl)-5-fluoro-N,N-diisopropylbenzamide] are 37 nM, above 10 µM, 1.9 µM and 3.6 μl/min/1E6.
For `Cc1c(C(=O)[C@@H]2CCN(C(=O)[C@H]3NC[C@@H]4C[C@@H]43)[C@@H](C)C2)c2ccncc2n1-c1ccc(F)cc1C(=O)N(CC(F)(F)F)C(C)C` (single isomer, unassigned) [Example 53-3, 2-(3-((2R*,4S*)-1-((1S,2S,5R)-3-Azabicyclo[3.1.0]hexane-2-carbonyl)-2-methylpiperidine-4-carbonyl)-2-methyl-1H-pyrrolo[2,3-c]pyridin-1-yl)-5-fluoro-N-isopropyl-N-(2,2,2-trifluoroethyl)benzamide], the results for the IC50 in the series with OCI-AML3 cells and in the series on HEL cells were 14 nM and above 10 µM, respectively. Besides, at muscarinic M2 receptor, the Ki came out at 19.8 µM. In addition, the “HH CLint” value in series [1] stood at 3.3 μl/min/1E6.
With `CCN(C(=O)c1cc(F)ccc1-n1c(C)c(C(=O)C2CCN(C(=O)[C@@H]3CCC4(CC4)N3)CC2)c2ccncc21)C(C)C` (single isomer, unassigned) [Example 49-2], the IC50 is above 233 nM with OCI-AML3 cells (Homo sapiens, OCI-AML-3, 168 h) and above 10 µM with HEL cells. For the same compound, the Ki on muscarinic M2 receptor turned out to be 27.4 µM. Also, in series [1], the “HH CLint” value is 6.0 μl/min/1E6.
Consider `CC(C)N(C(=O)c1cc(F)ccc1-n1cc(C(=O)[C@H]2CCN(C[C@H]3CC[C@H](NS(C)(=O)=O)CC3)C2)c2ccncc21)C(C)C` [Example 1, 5-Fluoro-N,N-diisopropyl-2-(3-((S)-1-(((1r,4S)-4-(methylsulfonamido)-cyclohexyl)methyl)pyrrolidine-3-carbonyl)-1H-pyrrolo[2,3-c]pyridin-1-yl)benzamide], for which the half-inhibitory concentration (IC50) in the series with OCI-AML3 cells (Homo sapiens, OCI-AML-3, 168 h) is 313 nM; in the series on HEL cells (Homo sapiens, HEL, 168 h) it was above 10 µM. The same compound showed a Ki at muscarinic M2 receptor of 8.1 µM. The “HH CLint” value in series [1] worked out at 2.6 μl/min/1E6.
Turning to `CC(C)c1ncccc1-c1cc(F)ccc1-n1cc(C(=O)C2CN(C(=O)[C@H]3N[C@@H]4CC[C@H]3C4)C2)c2ccncc21` [Example 10, (1-((1R,3S,4S)-2-Azabicyclo[2.2.1]heptane-3-carbonyl)azetidin-3-yl)(1-(4-fluoro-2-(2-isopropylpyridin-3-yl)phenyl)-1H-pyrrolo[2,3-c]pyridin-3-yl)methanone], the IC50 is 24 nM in the series on OCI-AML3 cells (Homo sapiens, OCI-AML-3, 168 h) and above 10 µM with HEL cells (Homo sapiens, HEL, 168 h). Further, the inhibition constant Ki on muscarinic M2 receptor came to 10.5 µM. Further, in series [1], the “HH CLint” value is on record as below 2.2 μl/min/1E6.
Regarding `CCN(C(=O)c1cc(F)ccc1-n1c(C)c(C(=O)C2CCN(C(=O)[C@@H]3CCC(C)(C)N3)CC2)c2ccncc21)C(C)C` (single isomer, unassigned) [Example 50-2], the IC50 is 63 nM in the series on OCI-AML3 cells (Homo sapiens, OCI-AML-3, 168 h) and above 10 µM in the series with HEL cells. In addition, the affinity on muscarinic M2 receptor, expressed as Ki, was 34.3 µM. Besides, the “HH CLint” value in series [1] was below 1.0 μl/min/1E6.
As for `CC(C)N(C(=O)c1cc(F)ccc1-n1cc(C(=O)C2CN(C(=O)[C@H]3N[C@@H]4CC[C@H]3C4)C2)c2ccncc21)C(C)C` [Example 5, 2-(3-(1-((1R,3S,4S)-2-Azabicyclo[2.2.1]heptane-3-carbonyl)azetidine-3-carbonyl)-1H-pyrrolo[2,3-c]pyridin-1-yl)-5-fluoro-N,N-diisopropylbenzamide], the IC50 is 125 nM in the series on OCI-AML3 cells (Homo sapiens, OCI-AML-3, 168 h) and above 10 µM in the series on HEL cells (Homo sapiens, HEL, 168 h). On muscarinic M2 receptor, this compound had a Ki of 6.6 µM. For the same compound, the “HH CLint” value in series [1] was below 1.0 μl/min/1E6.

For the origin of these results see US20240335431A1, “1-H-PYRROLO[2,3-c]PYRIDINE COMPOUNDS” (Acerta Pharma B.V., priority 2023, published 2024).
